In paper PMC12794188, “Maternal–Fetal Transfer and Toxicokinetics of 2,2′,5,5′-Tetrachlorobiphenyl, [^14C]-PCB52, Following Intratracheal Administration” (Chemical Research in Toxicology, 2025):

Experiment: Toxicokinetics and tissue disposition of total [14C] radioactivity after a single intratracheal dose of [14C]-PCB52 (0.157 mg/kg) in pregnant rats at GD 11±1
Format: in vivo, Sprague–Dawley rats
Procedure: Female Sprague–Dawley rats (8 weeks old) weighing 237–269.7 g (mean = 247.5 g) (Envigo RMS, LLC, Indianapolis, IN) were used for this study. All animal experiments were performed following the protocols evaluated and approved by the University of Iowa Institutional Animal Care and Use Committee (approval number 3091097). After arrival, the animals were acclimated for 7 days. The animals were housed in a light and temperature-controlled environment with ad libitum access to food and water during quarantine and throughout the study. Timed pregnancy was achieved by harem mating. , Briefly, one male and two female rats were placed together in the evening and checked for vaginal plug the following day. If vaginal plug was present, the male was removed from the breeding cage, and the gestation day 0 (GD 0), 0-day post coitum was assigned. Pregnancies were confirmed by ultrasound scan at GD 9. The dams were exposed at GD 11 (±1 day) to capture the period of early organogenesis and hormonal function, which falls within week 3 of human embryonic development. ,− On the day of the experiment, pregnant rats were intratracheally administered an average of 40 μg (range, 35–45 μg) of [^14C]-PCB52 in 100 μL of exposure solution. Although the dose used in this study exceeded the tolerable daily intake (TDI) of PCBs for healthy individuals, which is 1.6 μg per day for an individual weighing 80 kg, the use of higher acute doses has been established in toxicological studies intended for risk assessment. The intratracheal instillation method was chosen for administering [^14C]-PCB52 to represent inhalation exposures, capture exhaled concentration, and efficiently utilize the limited availability of the cost-intensive radiolabeled PCB52. , Although inhalation exposure would better represent real-world exposures to airborne LC-PCBs, it would not allow us to accurately measure the amount of PCB52 exhaled into the air after exposure and is experimentally infeasible. […] All intratracheal instillations were done under light anesthesia, achieved using a 4% isoflurane concentration via a Fortec vaporizer (Cyprane, Keighley, UK). The animals recovered from anesthesia within 1 min. Subsequently, the animals were housed within a cylindrical glass chamber measuring 2 L in volume, equipped with glass drainage mechanisms to facilitate urine collection and a metallic screen to segregate urine from feces (as in Figure S1). Air was drawn from the chamber at 6.0 L/min through a cartridge containing the XAD-2 polymeric resin to capture any exhaled [^14C]-PCB52. For periods longer than 24 h postexposure, exposed dams were placed in a metabolic cage, which was fitted with a cartridge containing XAD-2 to capture exhaled [^14C]-PCB52 as in other end points.
Maternal blood, urine, and feces samples were collected immediately before and at 0.21, 1.67, 12, 24, 48, and 96 h after lung dosing. The exposed dams were euthanized using 4% isoflurane, followed by cervical dislocation and exsanguination via a cardiac puncture. Euthanasia was consistently performed during the light cycle. Dams’ fur was wiped and analyzed for radioactivity. Using the retro-orbital blood collection method, 0.5–1.5 mL ([…] of an exposed pregnant rat’s body weight) of blood sample was collected from each of the dams until the individual dams were necropsied for whole-body tissue harvesting. At the end of the exposure period, the chamber’s interior walls were rinsed separately with water and acetone/hexane (25 – 45 mL) and wiped to measure residues. From the collected whole blood samples, 100 μL were aliquoted into three vials each, and the remaining blood was allowed to clot at room temperature before being centrifuged to yield serum. The placentas, developing fetuses, and whole-body tissue samples were harvested immediately before exposure and at 0.21, 1.67, 12, 24, and 96 h postexposure. […]

[1] = AF (amniotic fluid)/MS (maternal serum)
[2] = Adipose tissue, 0.21 h post-exposure
[3] = Adipose tissue, 1.67 h post-exposure
[4] = Adipose tissue, 12 h post-exposure
[5] = Brown adipose, 0.21 h post-exposure
[6] = Brown adipose, 1.67 h post-exposure
[7] = Brown adipose, 12 h post-exposure
[8] = Brown adipose, 24 h post-exposure
[9] = Brown adipose, 96 h post-exposure
[10] = Esophagus, 0.21 h post-exposure
[11] = Esophagus, 1.67 h post-exposure

Clc1ccc(Cl)c(-c2cc(Cl)ccc2Cl)c1 [PCB52, 2,2′,5,5′-Tetrachlorobiphenyl]
AUC0‑∞ ratio [1]: 0.050 | AUC0–96h ratio [1]: 0.053 | C max ratio [1]: 0.043 | AUC0–96h ratio (AF (amniotic fluid)/brain): 0.079 | C max ratio (AF (amniotic fluid)/brain): 0.071 | AUC_%Extrap (Adipose tissue): 42.32% | Terminal elimination half-life (t1/2) (Adipose tissue): 72.85 h | Conc. per mg wet tissue [2]: 8.78 dpm/mg | Percent tissue distribution [2]: 10.92% | Conc. per mg wet tissue [3]: 19.77 dpm/mg | Percent tissue distribution [3]: 33.81% | Conc. per mg wet tissue [4]: 27.29 dpm/mg | Percent tissue distribution [4]: 26.32% | Percent tissue distribution (Adipose tissue, 24 h post-exposure): 28.25% | AUC_%Extrap (Adrenal gland): 74.40% | Terminal elimination half-life (t1/2) (Adrenal gland): 253.59 h | AUC_%Extrap (Bladder): 40.50% | Terminal elimination half-life (t1/2) (Bladder): 57.81 h | Conc. per mg wet tissue (Brain, 0.21 h post-exposure): 1.44 dpm/mg | Percent tissue distribution (Brain, 0.21 h post-exposure): 0.79% | Conc. per mg wet tissue (Brain, 1.67 h post-exposure): 4.90 dpm/mg | Percent tissue distribution (Brain, 1.67 h post-exposure): 0.52% | Conc. per mg wet tissue (Brain, 12 h post-exposure): 0.67 dpm/mg | Percent tissue distribution (Brain, 12 h post-exposure): 0.08% | Conc. per mg wet tissue (Brain, 24 h post-exposure): 0.64 dpm/mg | Percent tissue distribution (Brain, 24 h post-exposure): 0.07% | Conc. per mg wet tissue (Brain, 96 h post-exposure): 0.67 dpm/mg | Percent tissue distribution (Brain, 96 h post-exposure): 0.10% | Conc. per mg wet tissue (Bronchi, 0.21 h post-exposure): 81.91 dpm/mg | Percent tissue distribution (Bronchi, 0.21 h post-exposure): 0.66% | Conc. per mg wet tissue (Bronchi, 1.67 h post-exposure): 33.51 dpm/mg | Percent tissue distribution (Bronchi, 1.67 h post-exposure): 0.20% | Conc. per mg wet tissue (Bronchi, 12 h post-exposure): 20.05 dpm/mg | Percent tissue distribution (Bronchi, 12 h post-exposure): 0.10% | Conc. per mg wet tissue (Bronchi, 24 h post-exposure): 18.87 dpm/mg | Percent tissue distribution (Bronchi, 24 h post-exposure): 0.08% | Conc. per mg wet tissue (Bronchi, 96 h post-exposure): 1.44 dpm/mg | Percent tissue distribution (Bronchi, 96 h post-exposure): 0.01% | Conc. per mg wet tissue [5]: 40.87 dpm/mg | Percent tissue distribution [5]: 0.21% | Conc. per mg wet tissue [6]: 120.53 dpm/mg | Percent tissue distribution [6]: 0.87% | Conc. per mg wet tissue [7]: 27.78 dpm/mg | Percent tissue distribution [7]: 0.00% | Conc. per mg wet tissue [8]: 23.09 dpm/mg | Percent tissue distribution [8]: 0.18% | Conc. per mg wet tissue [9]: 4.17 dpm/mg | Percent tissue distribution [9]: 0.00% | AUC_%Extrap (Colon tissue): 22.17% | Terminal elimination half-life (t1/2) (Colon tissue): 40.46 h | Conc. per mg wet tissue (Colon, 0.21 h post-exposure): 9.24 dpm/mg | Percent tissue distribution (Colon, 0.21 h post-exposure): 0.35% | Conc. per mg wet tissue (Colon, 1.67 h post-exposure): 5.24 dpm/mg | Percent tissue distribution (Colon, 1.67 h post-exposure): 0.28% | Conc. per mg wet tissue (Colon, 12 h post-exposure): 5.56 dpm/mg | Percent tissue distribution (Colon, 12 h post-exposure): 0.41% | Conc. per mg wet tissue (Colon, 24 h post-exposure): 9.18 dpm/mg | Percent tissue distribution (Colon, 24 h post-exposure): 0.51% | Conc. per mg wet tissue (Colon, 96 h post-exposure): 1.87 dpm/mg | Percent tissue distribution (Colon, 96 h post-exposure): 0.16% | AUC_%Extrap (Duodenum): 14.10% | Terminal elimination half-life (t1/2) (Duodenum): 34.84 h | Tmax (Duodenum): ≤ 0.21 h | Conc. per mg wet tissue (Duodenum, 0.21 h post-exposure): 21.37 dpm/mg | Percent tissue distribution (Duodenum, 0.21 h post-exposure): 0.71% | Conc. per mg wet tissue (Duodenum, 1.67 h post-exposure): 8.50 dpm/mg | Percent tissue distribution (Duodenum, 1.67 h post-exposure): 0.25% | Conc. per mg wet tissue (Duodenum, 12 h post-exposure): 3.28 dpm/mg | Percent tissue distribution (Duodenum, 12 h post-exposure): 0.12% | Conc. per mg wet tissue (Duodenum, 24 h post-exposure): 4.69 dpm/mg | Percent tissue distribution (Duodenum, 24 h post-exposure): 0.17% | Conc. per mg wet tissue (Duodenum, 96 h post-exposure): 0.83 dpm/mg | Percent tissue distribution (Duodenum, 96 h post-exposure): 0.05% | AUC_%Extrap (Esophagus): 11.71% | Terminal elimination half-life (t1/2) (Esophagus): 46.31 h | Conc. per mg wet tissue [10]: 72.35 dpm/mg | Percent tissue distribution [10]: 0.51% | Conc. per mg wet tissue [11]: 5.67 dpm/mg | Percent tissue distribution [11]: 0.06% | Conc. per mg wet tissue (Esophagus, 12 h post-exposure): 1.09 dpm/mg | Percent tissue distribution (Esophagus, 12 h post-exposure): 0.01% | Conc. per mg wet tissue (Esophagus, 24 h post-exposure): 0.76 dpm/mg | Percent tissue distribution (Esophagus, 24 h post-exposure): 0.01%
